The values that follow are results of earlier work, collected in US11241503B2, “Oxadiazole linkers and use thereof” (NewBio Therapeutics, Inc., priority 2017, dated 2022).

As usually defined, the IC50 is the concentration that gives 50% inhibition.

This data set deals with human carcinoma lines.

Take `COc1cccc2c1C(=O)c1c(O)c3c(c(O)c1C2=O)C[C@@](O)(C(=O)CO)C[C@@H]3O[C@H]1C[C@H](N)[C@H](O)[C@H](C)O1` [doxorubicin, Doxorubicin]: the IC50 is 100 to 200 nM.
